What was measured:
HIV = settings: in vitro; cited from earlier work

Row | melting point [°C] | SMILES | anti-HIV activity (HIV)
1 | 119 to 123 | OCC1(n2nc3ccccc3n2)OCC1c1ccccc1 (stereo not drawn) [Example 1, 2-(Benzotriazol-2-yl)-2-(hydroxymethyl)-3-phenyloxetane] | –
2 | – | Nc1ncnc2c1ncn2[C@@H]1O[C@H](CO)[C@H]1CO [oxetanocin] | potent anti-HIV activity in vitro
3 | 77 to 78.3 | OCC1(n2nccn2)OCC1c1ccccc1 (stereo not drawn) [Example 2, 2-Hydroxymethyl-3-phenyl-2-(1,2,3-triazol-2-yl)oxetane] | –

— US7687500B2, “Substituted oxetanes, method of making, and method of use thereof” (The University of Connecticut, priority 2004, dated 2010)
